Reference: article PMC9205463 (Cell reports, 2022)

Molecular target: DDX41 (Homo sapiens, UniProt Q9UJV9)
Details: labelled compound ([γ-32P]ATP)

DDX41, sequence (Q9UJV9 whole entry): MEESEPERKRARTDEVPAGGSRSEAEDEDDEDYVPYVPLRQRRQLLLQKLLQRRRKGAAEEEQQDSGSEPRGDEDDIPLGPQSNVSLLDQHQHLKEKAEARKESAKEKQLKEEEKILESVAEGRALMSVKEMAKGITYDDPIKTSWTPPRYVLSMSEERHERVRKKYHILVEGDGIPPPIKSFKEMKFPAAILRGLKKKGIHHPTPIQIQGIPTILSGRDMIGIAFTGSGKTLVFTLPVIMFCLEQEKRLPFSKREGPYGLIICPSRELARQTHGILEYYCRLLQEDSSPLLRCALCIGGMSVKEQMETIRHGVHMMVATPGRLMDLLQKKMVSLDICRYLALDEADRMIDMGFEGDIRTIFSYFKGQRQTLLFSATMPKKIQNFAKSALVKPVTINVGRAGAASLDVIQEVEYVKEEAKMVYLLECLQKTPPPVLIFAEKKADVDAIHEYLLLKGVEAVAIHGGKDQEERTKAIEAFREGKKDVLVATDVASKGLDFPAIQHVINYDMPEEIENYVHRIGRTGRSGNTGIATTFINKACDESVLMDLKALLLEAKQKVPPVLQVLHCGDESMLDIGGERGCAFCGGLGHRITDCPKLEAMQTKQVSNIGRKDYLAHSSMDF

Nc1ncnc2c1ncn2[C@@H]1O[C@H](COP(=O)(O)OP(=O)(O)OP(=O)(O)O)[C@@H](O)[C@H]1O [ATP]
filter binding (dot blot); ATP-agarose pull-down: we incubated the same amount of WT or R525H proteins with ATP agarose
